Results taken from patent US8673938B2, “Chemical compounds” (priority 2006, dated 2014).

Biological target: human 11βHSD1 enzyme (Homo sapiens (Human), UniProt P28845)
Test: biochemical
Conditions: for inhibition at 30 µM: read-out: % inhibition of human 11-βHSD

Chain of human 11βHSD1 enzyme (P28845 whole entry): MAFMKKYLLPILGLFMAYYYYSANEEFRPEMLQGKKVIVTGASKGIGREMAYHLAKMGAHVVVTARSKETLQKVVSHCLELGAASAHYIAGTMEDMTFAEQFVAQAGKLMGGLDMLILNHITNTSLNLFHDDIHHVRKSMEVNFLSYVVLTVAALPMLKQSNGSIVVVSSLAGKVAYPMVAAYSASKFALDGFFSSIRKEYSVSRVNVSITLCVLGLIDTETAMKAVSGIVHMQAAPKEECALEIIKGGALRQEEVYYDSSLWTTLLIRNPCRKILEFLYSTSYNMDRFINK

Compound	inhibition at 30 µM [%]	IC50 [µM]
O=C(N[C@H]1C2CC3CC1C[C@](O)(C3)C2)c1ccc(N2CCC[C@H]2C(=O)O)nc1SC1CCCCC1 [Example 101, (2S)-1-[6-cyclohexylsulfanyl-5-[((2r,5s)-5-hydroxy-2-adamantyl)carbamoyl]pyridin-2-yl]pyrrolidine-2-carboxylic acid]	100	–
O=C(O)C[C@@H]1CCCN(c2ccc(C(=O)NC34CC5CC(CC(C5)C3)C4)cn2)C1 [{(3S)-1-[5-(adamantan-1-ylcarbamoyl)pyridin-2-yl]piperidin-3-yl}acetic acid, reference compound]	–	> 30
O=C(O)C[C@H]1CCN(c2ccc(C(=O)N[C@H]3C4CC5CC3C[C@@](O)(C5)C4)c(SC3CCCC3)n2)C1 [Example 95, 2-[(3R)-1-[6-cyclopentylsulfanyl-5-[((2r,5s)-5-hydroxy-2-adamantyl)carbamoyl]pyridin-2-yl]pyrrolidin-3-yl]acetic acid]	88	–
O=C(N[C@H]1C2CC3CC1C[C@](OC(F)F)(C3)C2)c1ccc(N2CC[C@@H](C(=O)O)C2)nc1SC1CCCC1 [Example 182, (3R)-1-[6-cyclopentylsulfanyl-5-[[(2r,5s)-5-(difluoromethoxy)-2-adamantyl]carbamoyl]pyridin-2-yl]pyrrolidine-3-carboxylic acid]	91	–
CCCOc1nc(N2CCC[C@@H](CC(=O)O)C2)ccc1C(=O)N[C@H]1C2CC3CC1C[C@](OC(F)F)(C3)C2 [Example 181, 2-[(3S)-1-[5-[[(2r,5s)-5-(Difluoromethoxy)-2-adamantyl]carbamoyl]-6-propoxy-pyridin-2-yl]-3-piperidyl]acetic acid]	93	–
CSc1nc(N2CC[C@@H](C(=O)O)C2)ccc1C(=O)NC1C2CC3CC(C2)CC1C3 (stereo partly drawn) [Example 77, (3R)-1-[5-(2-adamantylcarbamoyl)-6-methylsulfanyl-pyridin-2-yl]pyrrolidine-3-carboxylic acid]	99	–
CCCSc1nc(N2CC[C@@H](CC(=O)O)C2)ccc1C(=O)NC1C2CC3CC1CC(O)(C3)C2 (stereo partly drawn) [Example 79, 2-[(3S)-1-[5-[((2r,5s)-5-hydroxy-2-adamantyl)carbamoyl]-6-propylsulfanyl-pyridin-2-yl]pyrrolidin-3-yl]acetic acid]	90	–
CCCSc1nc(N2CCCC(CC(=O)O)C2)ccc1C(=O)NC1CCCCC1 (stereo not drawn) [Example 5, 2-[1-[5-(cyclohexylcarbamoyl)-6-propylsulfanyl-pyridin-2-yl]-3-piperidyl]acetic acid]	86	–
O=C(O)C[C@@H]1CCCN(c2ccc(C(=O)NC3CCCCC3)c(OCCc3cccnc3)n2)C1 [compound 138, 2-[(3S)-1-[5-(cyclohexyl-carbamoyl)-6-(2-pyridin-3-ylethoxy)pyridin-2-yl]-3-piperidyl] acetic acid]	98	–
CCCSc1nc(N2CCC[C@@H](CC(=O)O)C2)c(F)cc1C(=O)NC1CCCCC1 [Example 186, (S)-2-(1-(5-(Cyclohexylcarbamoyl)-3-fluoro-6-(propylthio)pyridin-2-yl)piperidin-3-yl)acetic acid]	104	–
CCCSc1nc(N2C[C@@H]3[C@H](C2)[C@H]3C(=O)O)ccc1C(=O)NC1C2CC3CC(C2)CC1C3 (stereo partly drawn) [Example 66, (1S,5R)-3-[5-(2-adamantylcarbamoyl)-6-propylsulfanylpyridin-2-yl]-3-azabicyclo[3.1.0]hexane-6-carboxylic acid]	89	–
O=C(O)C[C@@H]1CCCN(c2ccc(C(=O)NC3CCCCC3)c(NCCc3ccc(Cl)cc3)n2)C1 [compound 142, 2-[(3S)-1-[6-[2-(4-chlorophenyl)ethylamino]-5-(cyclohexylcarbamoyl)pyridin-2-yl]-3-piperidyl]acetic acid]	94	–
O=C(O)C[C@@H]1CCN(c2ccc(C(=O)N[C@H]3C4CC5CC3C[C@](OC(F)F)(C5)C4)c(SC3CCCCC3)n2)C1 [Example 175, 2-[(3S)-1-[6-Cyclohexylsulfanyl-5-[[(2r,5s)-5-(difluoromethoxy)-2-adamantyl]carbamoyl]pyridin-2-yl]pyrrolidin-3-yl]acetic acid]	91	–
CCCSc1nc(N2CCC[C@@H](CC(=O)O)C2)ccc1C(=O)N(C)[C@H]1C2CC3CC1C[C@](O)(C3)C2 [Example 171, [(3S)-1-{5-[((2r,5s)-5-Hydroxyadamantan-2-yl)(methyl)carbamoyl]-6-(propylthio)pyridin-2-yl}piperidin-3-yl]acetic acid]	97	–
O=C(N[C@H]1C2CC3CC1C[C@](O)(C3)C2)c1ccc(N2CC[C@@H](C(=O)O)C2)nc1SC1CCCC1 [Example 96, (3R)-1-[6-cyclopentylsulfanyl-5-[((2r,5s)-5-hydroxy-2-adamantyl)carbamoyl]pyridin-2-yl]pyrrolidine-3-carboxylic acid]	88	–
CCCSc1nc(N2CCCC(CCC(=O)O)C2)ccc1C(=O)NC1CCCCC1 (stereo not drawn) [Example 39, 3-[1-[5-(cyclohexylcarbamoyl)-6-propylsulfanyl-pyridin-2-yl]-3-piperidyl]propanoic acid]	74	–
CCCSc1nc(N2CCC[C@@H](CC(=O)O)C2)ccc1C(=O)N1CCC(c2ccccn2)C1 (stereo partly drawn) [Example 114, 2-[(3S)-1-[6-propylsulfanyl-5-(3-pyridin-2-ylpyrrolidine-1-carbonyl)pyridin-2-yl]-3-piperidyl]acetic acid]	101	–
CCCSc1nc(N2CCCC(C3(C(=O)O)CCC3)C2)ccc1C(=O)NC1CCCCC1 (stereo not drawn) [Example 41, 1-[1-[5-(cyclohexylcarbamoyl)-6-propylsulfanyl-pyridin-2-yl]-3-piperidyl]cyclobutane-1-carboxylic acid]	82	–

Compound	inhibition at 30 µM [%]	IC50 [µM]
CCCSc1nc(N2CCC[C@H]2C(=O)O)ccc1C(=O)NC1C2CC3CC(C2)CC1C3 (stereo partly drawn) [Example 65, (2S)-1-[5-(2-adamantylcarbamoyl)-6-propylsulfanyl-pyridin-2-yl]pyrrolidine-2-carboxylic acid]	89	–
O=C(O)C[C@H]1CCCN(c2ccc(C(=O)NC3CCCCC3)c(SC3CCCCC3)n2)C1 [Example 58, 2-[(3R)-1-[5-(cyclohexylcarbamoyl)-6-cyclohexylsulfanyl-pyridin-2-yl]-3-piperidyl]acetic acid]	83	–
CC(C)CCSc1nc(N2CC[C@@H](C(=O)O)C2)ccc1C(=O)N[C@H]1C2CC3CC1C[C@@](O)(C3)C2 [Example 105]	92	–
CCCSc1nc(Sc2ccc(CC(=O)O)cc2)ccc1C(=O)NC1CCCCC1 [Example 22, 2-[4-[5-(cyclohexylcarbamoyl)-6-propylsulfanyl-pyridin-2-yl]sulfanylphenyl]acetic acid]	65	–
O=C(O)C[C@H]1CCCN(c2ccc(C(=O)NC3CCCCC3)c(SCCc3ccccc3)n2)C1 [Example 129, 2-[(3R)-1-[5-(cyclohexylcarbamoyl)-6-phenethylsulfanyl-pyridin-2-yl]-3-piperidyl]acetic acid]	82	–
CCCSc1nc(N2CCC[C@@H](CC(=O)O)C2)ccc1C(=O)N[C@H]1CC[C@H](O)CC1 [Example 125, 2-[(3S)-1-[5-[(4-hydroxycyclohexyl)carbamoyl]-6-propylsulfanyl-pyridin-2-yl]-3-piperidyl]acetic acid]	102	–
CCCSc1nc(N2CCC(C(=O)O)C(C)C2)ccc1C(=O)NC1CCCCC1 (stereo not drawn) [Example 36]	89	–
CC(C)(O)C1CCCN(C(=O)c2ccc(N3CCC[C@@H](CC(=O)O)C3)nc2SC2CCCC2)C1 (stereo partly drawn) [Example 128, 2-[(3S)-1-[6-cyclopentylsulfanyl-5-[3-(2-hydroxypropan-2-yl)piperidine-1-carbonyl]pyridin-2-yl]-3-piperidyl]acetic acid]	91	–
CCCSc1nc(N2CC[C@H](CC(=O)O)C2)ccc1C(=O)NC1C2CC3CC(C2)CC1C3 (stereo partly drawn) [Example 64, 2-[(3R)-1-[5-(2-adamantylcarbamoyl)-6-propylsulfanyl-pyridin-2-yl]pyrrolidin-3-yl]acetic acid]	89	–
O=C(O)C[C@@H]1CCCN(c2ccc(C(=O)N[C@H]3C4CC5CC3C[C@@](O)(C5)C4)c(SC3CCCC3)n2)C1 [Example 94]	90	–
CCCSc1nc(N2CCC(C)(C(=O)O)CC2)ccc1C(=O)NC1CCCCC1 [Example 32, 1-[5-(cyclohexylcarbamoyl)-6-propylsulfanyl-pyridin-2-yl]-4-methyl-piperidine-4-carboxylic acid]	89	–
CCCSc1nc(N2CCCC(OC(C)(C)C(=O)O)C2)ccc1C(=O)NC1CCCCC1 (stereo not drawn) [Example 45]	85	–
CCCSc1nc(N2CCC(C(C)(C)C(=O)O)CC2)ccc1C(=O)NC1CCCCC1 [Example 48, 2-[1-[5-(cyclohexylcarbamoyl)-6-propylsulfanyl-pyridin-2-yl]-4-piperidyl]-2-methyl-propanoic acid]	75	–
CCCSc1nc(N2CC[C@H](CC(=O)O)C2)ccc1C(=O)N[C@H]1C2CC3CC1C[C@](OC(F)F)(C3)C2 [Example 184, 2-[(3R)-1-[5-[[(2r,5s)-5-(difluoromethoxy)-2-adamantyl]carbamoyl]-6-propylsulfanyl-pyridin-2-yl]pyrrolidin-3-yl]acetic acid]	94	–
CCCSc1nc(N2CCC[C@@H](CC(=O)O)C2)ccc1C(=O)N1CCC(C(N)=O)CC1 [Example 120, 2-[(3S)-1-[5-(4-carbamoylpiperidine-1-carbonyl)-6-propylsulfanyl-pyridin-2-yl]-3-piperidyl]acetic acid]	104	–
CCCOc1nc(N2CCCC(C(C)(C)C(=O)O)C2)ccc1C(=O)N[C@H]1C2CC3CC1C[C@](O)(C3)C2 (stereo partly drawn) [Example 110, 2-[1-[5-[((2r,5s)-5-hydroxy-2-adamantyl)carbamoyl]-6-propoxy-pyridin-2-yl]-3-piperidyl]-2-methyl-propanoic acid]	95	–
CCCSc1nc(N2CC(OCC(=O)O)C2)ccc1C(=O)NC1CCCCC1 [Example 40, 2-[1-[5-(cyclohexylcarbamoyl)-6-propylsulfanyl-pyridin-2-yl]azetidin-3-yl]oxyacetic acid]	87	–
CCCSc1nc(N2CCCC(C)(C(=O)O)C2)ccc1C(=O)NC1CCCCC1 (stereo not drawn) [Example 47, 1-[5-(cyclohexylcarbamoyl)-6-propylsulfanyl-pyridin-2-yl]-3-methyl-piperidine-3-carboxylic acid]	90	–
